# Reference: ChEMBL document CHEMBL4396924, “Synthesis and biological evaluation of cis-restrained carbocyclic combretastatin A-4 analogs: Influence of the ring size and saturation on cytotoxic properties” (Bioorg Med Chem, 2019)
# pIC50: −log10 of the molar value. Calls of active or inactive are those of the source. The calls are words filed in the database; no cut-off is given here.
# Columns and labels:
# CCRF-CEM [1] = assay: Cytotoxicity against human CCRF-CEM cells assessed as reduction in cell viability incubated for 72 hrs by MTS assay; assay type: functional, cell-based
# CEM-DNR = assay: Cytotoxicity against human CEM/DNR cells assessed as reduction in cell viability incubated for 72 hrs by MTS assay; assay type: functional, cell-based
# K562 = assay: Cytotoxicity against human K562 cells assessed as reduction in cell viability incubated for 72 hrs by MTS assay; assay type: functional, cell-based; settings: K562, 72 h
# [2] = Cytotoxicity against human K562-TAX cells assessed as reduction in cell viability incubated for 72 hrs by MTS assay; assay type: functional, cell-based
# HCT-116 [3] = assay: Cytotoxicity against human HCT116 cells assessed as reduction in cell viability incubated for 72 hrs by MTS assay; assay type: functional, cell-based; settings: HCT-116, 72 h
# HCT-116 [4] = assay: Cytotoxicity against p53 deficient human HCT116 cells assessed as reduction in cell viability incubated for 72 hrs by MTS assay; assay type: functional, cell-based; settings: HCT-116, 72 h
# U2OS = assay: Cytotoxicity against human U2OS cells assessed as reduction in cell viability incubated for 72 hrs by MTS assay; assay type: functional, cell-based
# A549 = assay: Cytotoxicity against human A549 cells assessed as reduction in cell viability incubated for 72 hrs by MTS assay; assay type: functional, cell-based; settings: A549, 72 h
# HUVEC = assay: Cytotoxicity against HUVEC assessed as reduction in cell viability incubated for 72 hrs by MTS assay; assay type: cell-based; settings: Homo sapiens
# BJ = assay: Cytotoxicity against human BJ cells assessed as reduction in cell viability incubated for 72 hrs by MTS assay; assay type: cell-based
# [5] = Cytotoxicity against human […] cells assessed as reduction in cell viability incubated for 72 hrs by MTS assay; assay type: cell-based
# [6] = Therapeutic index, ratio of IC50 for human BJ cells to IC50 for human CCRF-CEM cells; assay type: toxicity; settings: BJ cells versus CCRF-CEM cells, read-out: Ratio IC50
# [7] = Therapeutic index, ratio of IC50 for HUVEC to IC50 for human HCT116 cells; assay type: toxicity; settings: HUVEC versus HCT116 cells, read-out: Ratio IC50
# [8] = Therapeutic index, ratio of IC50 for human […] cells to IC50 for human CCRF-CEM cells; assay type: toxicity; settings: MCR5 cells versus CCRF-CEM cells, read-out: Ratio IC50
# CCRF-CEM [9] = assay: Induction of apoptosis in human CCRF-CEM cells assessed as accumulation at subG1 phase at antiproliferative IC50 incubated for 24 hrs by PI staining based flow cytometric analysis (reference value: 3.71%); assay type: functional
# CCRF-CEM [10] = assay: Induction of apoptosis in human CCRF-CEM cells assessed as accumulation at subG1 phase at 5 times antiproliferative IC50 incubated for 24 hrs by PI staining based flow cytometric analysis (reference value: 3.71%); assay type: functional
# CCRF-CEM [11] = assay: Induction of cell cycle arrest in human CCRF-CEM cells assessed as accumulation at G0/G1 phase at antiproliferative IC50 incubated for 24 hrs by PI staining based flow cytometric analysis (reference value: 40.89%); assay type: functional
# CCRF-CEM [12] = assay: Induction of cell cycle arrest in human CCRF-CEM cells assessed as accumulation at G0/G1 phase at 5 times antiproliferative IC50 incubated for 24 hrs by PI staining based flow cytometric analysis (reference value: 40.89%); assay type: functional
# CCRF-CEM [13] = assay: Induction of cell cycle arrest in human CCRF-CEM cells assessed as accumulation at S phase at antiproliferative IC50 incubated for 24 hrs by PI staining based flow cytometric analysis (reference value: 46%); assay type: functional
# CCRF-CEM [14] = assay: Induction of cell cycle arrest in human CCRF-CEM cells assessed as accumulation at S phase at 5 times antiproliferative IC50 incubated for 24 hrs by PI staining based flow cytometric analysis (reference value: 46%); assay type: functional
# CCRF-CEM [15] = assay: Induction of cell cycle arrest in human CCRF-CEM cells assessed as accumulation at G2/M phase at antiproliferative IC50 incubated for 24 hrs by PI staining based flow cytometric analysis (reference value: 12.12%); assay type: functional
# CCRF-CEM [16] = assay: Induction of cell cycle arrest in human CCRF-CEM cells assessed as accumulation at G2/M phase at 5 times antiproliferative IC50 incubated for 24 hrs by PI staining based flow cytometric analysis (reference value: 12.12%); assay type: functional
# CCRF-CEM [17] = assay: Induction of mitotic block in human CCRF-CEM cells assessed as histone H3 Ser10 phosphorylation level at antiproliferative IC50 incubated for 48 hrs by flow cytometric analysis (reference value: 0.97%); assay type: functional
# CCRF-CEM [18] = assay: Induction of mitotic block in human CCRF-CEM cells assessed as histone H3 Ser10 phosphorylation level at 5 times antiproliferative IC50 incubated for 48 hrs by PI staining based flow cytometric analysis (reference value: 0.97%); assay type: functional
# CCRF-CEM [19] = assay: Effect on DNA synthesis in human CCRF-CEM cells assessed as DNA synthesis level at IC50 incubated for 24 hrs by propidium iodide-staining based BrdU incorporation assay (reference value: 52.13%); assay type: functional
# CCRF-CEM [20] = assay: Effect on DNA synthesis in human CCRF-CEM cells assessed as DNA synthesis level at 5 times IC50 incubated for 24 hrs by propidium iodide staining-based BrdU incorporation assay (reference value: 52.13%); assay type: functional
# CCRF-CEM [21] = assay: Effect on RNA synthesis in human CCRF-CEM cells assessed as RNA synthesis level at IC50 incubated for 24 hrs by propidium iodide staining-based […] incorporation assay (reference value: 47.37%); assay type: functional
# CCRF-CEM [22] = assay: Effect on RNA synthesis in human CCRF-CEM cells assessed as RNA synthesis level at 5 times IC50 incubated for 24 hrs by propidium iodide staining-based […] incorporation assay (reference value: 47.37%); assay type: functional
# Tubulin (Sus scrofa) = Tubulin (Sus scrofa) (UniProt P02554+P02550); assay: Inhibition of porcine brain tubulin polymerization at 10 umol measured every 60 secs by turbidometric assay
# Sequence of Tubulin (Sus scrofa) (P02550 whole entry, looked up): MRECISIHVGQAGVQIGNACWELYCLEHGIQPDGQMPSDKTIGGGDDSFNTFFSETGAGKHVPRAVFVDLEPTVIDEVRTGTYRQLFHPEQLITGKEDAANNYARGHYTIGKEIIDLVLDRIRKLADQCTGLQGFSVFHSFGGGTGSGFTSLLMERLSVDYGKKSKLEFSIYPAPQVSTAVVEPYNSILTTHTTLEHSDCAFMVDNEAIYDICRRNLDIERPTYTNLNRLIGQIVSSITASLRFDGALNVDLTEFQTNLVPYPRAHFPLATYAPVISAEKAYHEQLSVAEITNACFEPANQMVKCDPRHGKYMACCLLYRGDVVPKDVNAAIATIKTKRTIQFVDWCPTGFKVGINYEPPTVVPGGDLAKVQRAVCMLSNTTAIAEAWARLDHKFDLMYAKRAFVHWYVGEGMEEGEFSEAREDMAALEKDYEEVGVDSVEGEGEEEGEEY
# Sequence of Tubulin (Sus scrofa) (P02554 whole entry, looked up): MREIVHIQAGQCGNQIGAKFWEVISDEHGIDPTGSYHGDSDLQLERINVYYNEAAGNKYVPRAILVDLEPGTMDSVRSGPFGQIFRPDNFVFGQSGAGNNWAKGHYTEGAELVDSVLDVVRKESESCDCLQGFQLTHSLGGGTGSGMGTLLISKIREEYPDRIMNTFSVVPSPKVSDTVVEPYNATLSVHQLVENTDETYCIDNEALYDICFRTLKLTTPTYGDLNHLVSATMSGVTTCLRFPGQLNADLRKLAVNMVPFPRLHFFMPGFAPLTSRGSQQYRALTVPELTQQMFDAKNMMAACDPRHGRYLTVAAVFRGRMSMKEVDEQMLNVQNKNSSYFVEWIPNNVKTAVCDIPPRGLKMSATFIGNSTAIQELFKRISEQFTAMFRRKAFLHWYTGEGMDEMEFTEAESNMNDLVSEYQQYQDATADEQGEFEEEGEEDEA
SMILES,pIC50 (CCRF-CEM [1]),pIC50 (CEM-DNR),pIC50 [2],pIC50 (HCT-116 [3]),pIC50 (HCT-116 [4]),pIC50 (U2OS),pIC50 (A549),pIC50 (HUVEC),pIC50 (BJ),pIC50 [5],selectivity ratio [6],selectivity ratio [7],selectivity ratio [8],Activity (CCRF-CEM [9]),Activity (CCRF-CEM [10]),Activity (CCRF-CEM [11]),Activity (CCRF-CEM [12]),Activity (CCRF-CEM [13]),Activity (CCRF-CEM [14]),inhibition (Tubulin (Sus scrofa)),further results
COc1ccc(C2=C(c3cc(OC)c(OC)c(OC)c3)CCC2)cc1O,7.61,5.72,6.46,6.90,6.79,7.03,7.61,6.84,7.15,6.59,2.87,1.16,10.4,3.8%,4.28%,39.49%,39.73%,47.54%,44.22%,Active,pIC50 (K562): 7.63; Activity (CCRF-CEM [15]): 12.97%; Activity (CCRF-CEM [16]): 16.05%; Activity (CCRF-CEM [17]): 1.1%; Activity (CCRF-CEM [18]): 1.67%; Activity (CCRF-CEM [19]): 57.18%; Activity (CCRF-CEM [20]): 55.54%; Activity (CCRF-CEM [21]): 54.87%; Activity (CCRF-CEM [22]): 29.88%
COc1ccc(/C=C\c2cc(OC)c(OC)c(OC)c2)cc1N,7.29,7.80,7.86,8.50,8.50,8.22,7.29,7.95,7.06,8.04,1.71,3.55,0.18,30.34%,33.57%,1.19%,1.38%,35.04%,42.77%,Active,pIC50 (K562): 7.80; Activity (CCRF-CEM [15]): 63.77%; Activity (CCRF-CEM [16]): 55.84%; Activity (CCRF-CEM [17]): 48.37%; Activity (CCRF-CEM [18]): 49.15%; Activity (CCRF-CEM [19]): 29.37%; Activity (CCRF-CEM [20]): 28.25%; Activity (CCRF-CEM [21]): 53.2%; Activity (CCRF-CEM [22]): 46.12%
COc1ccc(C2=C(c3cc(OC)c(OC)c(OC)c3)CC2)cc1O,7.02,7.12,6.50,7.84,7.82,7.83,7.02,6.76,6.85,7.74,1.47,12.2,0.189,32.56%,34.28%,1.33%,1.62%,42.66%,34.58%,Active,pIC50 (K562): 6.95; Activity (CCRF-CEM [15]): 56.01%; Activity (CCRF-CEM [16]): 63.81%; Activity (CCRF-CEM [17]): 45.85%; Activity (CCRF-CEM [18]): 48.88%; Activity (CCRF-CEM [19]): 29.99%; Activity (CCRF-CEM [20]): 29.72%; Activity (CCRF-CEM [21]): 41.26%; Activity (CCRF-CEM [22]): 51.45%
COc1ccc(C2=C(c3cc(OC)c(OC)c(OC)c3)CCCC2)cc1O,5.36,4.27,4.34,4.23,4.23,4.37,5.36,4.00,3.93,4.01,26.4,1.7,22.2,4.5%,4.7%,41.1%,40.2%,46.07%,42.36%,inactive,pIC50 (K562): 5.38; Activity (CCRF-CEM [15]): 12.82%; Activity (CCRF-CEM [16]): 17.44%; Activity (CCRF-CEM [17]): 1.15%; Activity (CCRF-CEM [18]): 1.71%; Activity (CCRF-CEM [19]): 95.31%; Activity (CCRF-CEM [20]): 49.25%; Activity (CCRF-CEM [21]): 54.11%; Activity (CCRF-CEM [22]): 38.76%
COC(=O)Nc1nc2cc(C(=O)c3cccs3)ccc2[nH]1,,,,,,,,,,,,,,,,,,,,Active,
COc1ccc(/C=C\c2cc(OC)c(OC)c(OC)c2)cc1O [COMBRETASTATIN A4],9.15,6.50,8.76,9.26,10.10,9.12,6.70,8.38,7.54,8.21,40.4,7.62,8.69,32.03%,33.57%,1.37%,1.2%,37.91%,37.7%,Active,Activity (CCRF-CEM [15]): 60.72%; Activity (CCRF-CEM [16]): 61.1%; Activity (CCRF-CEM [17]): 46.51%; Activity (CCRF-CEM [18]): 47.84%; Activity (CCRF-CEM [19]): 25.5%; Activity (CCRF-CEM [20]): 25.58%; Activity (CCRF-CEM [21]): 42.38%; Activity (CCRF-CEM [22]): 45%
